Test results as given in article PMC8162404, “Proteomimetic surface fragments distinguish targets by function” (Chemical Science, 2020).
Like-named read-outs stand apart in the source and are kept apart here.

Columns and labels:
Gal-1 = molecular target: T1, Gal-1 (Homo sapiens, UniProt P09382); experiment: Pull-down assay with immobilized protein and LSM libraries; type: binding; conditions: H12 library; 1:1 binding assumed; read-out: Surface mapping KD (apparent)
T1 construct: made in house; host or cells: E. coli BL21(DE3)
T1 sequence (P09382 whole entry): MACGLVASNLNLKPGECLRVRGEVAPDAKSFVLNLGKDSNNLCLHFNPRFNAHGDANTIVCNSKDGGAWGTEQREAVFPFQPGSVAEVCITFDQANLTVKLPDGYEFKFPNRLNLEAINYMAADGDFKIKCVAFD
Summary of the method: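 His-tagged protein immobilized on Co-NTA resin (64 µM) in 20 mM HEPES pH 7.4, 150 mM NaCl, equilibrated 30 min at room temperature with foldamer LSM sublibraries at equimolar total concentration. Unbound fractions quantified by HPLC-MS versus protein-free resin control; apparent KD assumes 1:1 binding.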

S100B = molecular target: T2, S100B (Homo sapiens, UniProt P04271); experiment: as above; type: binding; conditions: 1:1 binding assumed, read-out: Surface mapping KD (apparent)
T2 construct: made in house; host or cells: Escherichia coli BL21(DE3)
T2 sequence (P04271 1-92): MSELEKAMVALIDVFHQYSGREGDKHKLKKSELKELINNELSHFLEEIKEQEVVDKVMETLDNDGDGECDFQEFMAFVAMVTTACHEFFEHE
Summary of the method: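 Buffers were HEPES pH 7.4 with 150 mM NaCl, plus 1 mM TCEP and 1 mM CaCl2 (50 mM HEPES) for S100A4 and S100B, 1 mM TCEP for Gal-1, and no additive for RecQ-WH. Immobilized protein at 64 µM was equilibrated 30 min with the LSM sublibrary, and unbound probes were measured by LC-MS.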

| Kd (Gal-1) [µM] | Kd (S100B; H12 library) [µM] | Kd (S100B; H14 library) [µM] | Structure (SMILES) |
| --- | --- | --- | --- |
| 198 | 459 | – | NC(=O)[C@H]1CCC[C@@H]1NC(=O)[C@H]1CCC[C@@H]1NC(=O)C[C@H](CCC(=O)O)NC(=O)[C@H]1CCC[C@@H]1NC(=O)[C@H]1CCC[C@@H]1NC(=O)C[C@H](Cc1ccc(O)cc1)NC(=O)[C@H]1CCC[C@@H]1NC(=O)[C@H]1CCC[C@@H]1N [H12 YE] |
| 169 | 162 | – | CSCC[C@@H](CC(=O)N[C@H]1CCC[C@@H]1C(=O)N[C@H]1CCC[C@@H]1C(=O)N[C@H](CC(=O)N[C@H]1CCC[C@@H]1C(=O)N[C@H]1CCC[C@@H]1C(N)=O)[C@@H](C)O)NC(=O)[C@H]1CCC[C@@H]1NC(=O)[C@H]1CCC[C@@H]1N [H12 MT] |
| 364 | 166 | – | CC(C)[C@@H](CC(=O)N[C@H]1CCC[C@@H]1C(=O)N[C@H]1CCC[C@@H]1C(N)=O)NC(=O)[C@H]1CCC[C@@H]1NC(=O)[C@H]1CCC[C@@H]1NC(=O)C[C@H](Cc1ccc(O)cc1)NC(=O)[C@H]1CCC[C@@H]1NC(=O)[C@H]1CCC[C@@H]1N [H12 YV] |
| 459 | 303 | – | CSCC[C@@H](CC(=O)N[C@H]1CCC[C@@H]1C(=O)N[C@H]1CCC[C@@H]1C(N)=O)NC(=O)[C@H]1CCC[C@@H]1NC(=O)[C@H]1CCC[C@@H]1NC(=O)C[C@@H](NC(=O)[C@H]1CCC[C@@H]1NC(=O)[C@H]1CCC[C@@H]1N)C(C)C [H12 VM] |
| 205 | 430 | – | NC(=O)[C@H]1CCC[C@@H]1NC(=O)[C@H]1CCC[C@@H]1NC(=O)C[C@H](CC(=O)O)NC(=O)[C@H]1CCC[C@@H]1NC(=O)[C@H]1CCC[C@@H]1NC(=O)C[C@H](Cc1ccc(O)cc1)NC(=O)[C@H]1CCC[C@@H]1NC(=O)[C@H]1CCC[C@@H]1N [H12 YD] |
| 446 | 348 | – | CC(C)C[C@@H](CC(=O)N[C@H]1CCC[C@@H]1C(=O)N[C@H]1CCC[C@@H]1C(=O)N[C@@H](CCC(N)=O)CC(=O)N[C@H]1CCC[C@@H]1C(=O)N[C@H]1CCC[C@@H]1C(N)=O)NC(=O)[C@H]1CCC[C@@H]1NC(=O)[C@H]1CCC[C@@H]1N [H12 LQ] |
| 485 | 205 | – | C[C@@H](CC(=O)N[C@H]1CCC[C@@H]1C(=O)N[C@H]1CCC[C@@H]1C(N)=O)NC(=O)[C@H]1CCC[C@@H]1NC(=O)[C@H]1CCC[C@@H]1NC(=O)C[C@H](CCCNC(=N)N)NC(=O)[C@H]1CCC[C@@H]1NC(=O)[C@H]1CCC[C@@H]1N [H12 RA] |
| 194 | 195 | – | NC(=O)[C@H]1CCC[C@@H]1NC(=O)[C@H]1CCC[C@@H]1NC(=O)C[C@H](CO)NC(=O)[C@H]1CCC[C@@H]1NC(=O)[C@H]1CCC[C@@H]1NC(=O)C[C@H](Cc1ccc(O)cc1)NC(=O)[C@H]1CCC[C@@H]1NC(=O)[C@H]1CCC[C@@H]1N [H12 YS] |
| – | 216 | – | CC(C)C[C@@H](CC(=O)N[C@H]1CCC[C@@H]1C(=O)N[C@H]1CCC[C@@H]1C(=O)N[C@H](CC(=O)N[C@H]1CCC[C@@H]1C(=O)N[C@H]1CCC[C@@H]1C(N)=O)[C@@H](C)O)NC(=O)[C@H]1CCC[C@@H]1NC(=O)[C@H]1CCC[C@@H]1N [H12 LT] |
| – | – | 461 | NC(=O)[C@H]1CCCC[C@@H]1NC(=O)C[C@H](Cc1ccc(O)cc1)NC(=O)[C@H]1CCCC[C@@H]1NC(=O)[C@H]1CCCC[C@@H]1NC(=O)C[C@H](CC(=O)O)NC(=O)[C@H]1CCCC[C@@H]1N [H14 DY] |

Continued, compound first:

| Structure (SMILES) | Kd (Gal-1) [µM] | Kd (S100B; H12 library) [µM] | Kd (S100B; H14 library) [µM] |
| --- | --- | --- | --- |
| NC(=O)[C@H]1CCC[C@@H]1NC(=O)[C@H]1CCC[C@@H]1NC(=O)C[C@H](CCC(=O)O)NC(=O)[C@H]1CCC[C@@H]1NC(=O)[C@H]1CCC[C@@H]1NC(=O)C[C@H](Cc1ccccc1)NC(=O)[C@H]1CCC[C@@H]1NC(=O)[C@H]1CCC[C@@H]1N [H12 FE] | 198 | 391 | – |
| C[C@@H](CC(=O)N[C@H]1CCC[C@@H]1C(=O)N[C@H]1CCC[C@@H]1C(N)=O)NC(=O)[C@H]1CCC[C@@H]1NC(=O)[C@H]1CCC[C@@H]1NC(=O)C[C@H](Cc1ccc(O)cc1)NC(=O)[C@H]1CCC[C@@H]1NC(=O)[C@H]1CCC[C@@H]1N [H12 YA] | 222 | 95 | – |
| NC(=O)C[C@@H](CC(=O)N[C@H]1CCC[C@@H]1C(=O)N[C@H]1CCC[C@@H]1C(N)=O)NC(=O)[C@H]1CCC[C@@H]1NC(=O)[C@H]1CCC[C@@H]1NC(=O)C[C@H](Cc1c[nH]c2ccccc12)NC(=O)[C@H]1CCC[C@@H]1NC(=O)[C@H]1CCC[C@@H]1N [H12 WN] | 270 | 55 | – |
| NCCCC[C@@H](CC(=O)N[C@H]1CCC[C@@H]1C(=O)N[C@H]1CCC[C@@H]1C(N)=O)NC(=O)[C@H]1CCC[C@@H]1NC(=O)[C@H]1CCC[C@@H]1NC(=O)C[C@H](CCCCN)NC(=O)[C@H]1CCC[C@@H]1NC(=O)[C@H]1CCC[C@@H]1N [H12 KK] | 230 | 177 | – |
| N=C(N)NCCC[C@@H](CC(=O)N[C@H]1CCC[C@@H]1C(=O)N[C@H]1CCC[C@@H]1C(N)=O)NC(=O)[C@H]1CCC[C@@H]1NC(=O)[C@H]1CCC[C@@H]1NC(=O)C[C@H](CCC(N)=O)NC(=O)[C@H]1CCC[C@@H]1NC(=O)[C@H]1CCC[C@@H]1N [H12 QR] | 431 | 321 | – |
| CC(C)C[C@@H](CC(=O)N[C@H]1CCC[C@@H]1C(=O)N[C@H]1CCC[C@@H]1C(=O)N[C@@H](C)CC(=O)N[C@H]1CCC[C@@H]1C(=O)N[C@H]1CCC[C@@H]1C(N)=O)NC(=O)[C@H]1CCC[C@@H]1NC(=O)[C@H]1CCC[C@@H]1N [H12 LA] | 438 | 293 | – |
| CSCC[C@@H](CC(=O)N[C@H]1CCC[C@@H]1C(=O)N[C@H]1CCC[C@@H]1C(=O)N[C@@H](CCCCN)CC(=O)N[C@H]1CCC[C@@H]1C(=O)N[C@H]1CCC[C@@H]1C(N)=O)NC(=O)[C@H]1CCC[C@@H]1NC(=O)[C@H]1CCC[C@@H]1N [H12 MK] | 172 | 78 | – |
| N=C(N)NCCC[C@@H](CC(=O)N[C@H]1CCC[C@@H]1C(=O)N[C@H]1CCC[C@@H]1C(N)=O)NC(=O)[C@H]1CCC[C@@H]1NC(=O)[C@H]1CCC[C@@H]1NC(=O)C[C@H](CO)NC(=O)[C@H]1CCC[C@@H]1NC(=O)[C@H]1CCC[C@@H]1N [H12 SR] | 402 | 123 | – |
| C[C@@H](CC(=O)N[C@H]1CCC[C@@H]1C(=O)N[C@H]1CCC[C@@H]1C(=O)N[C@H](CC(=O)N[C@H]1CCC[C@@H]1C(=O)N[C@H]1CCC[C@@H]1C(N)=O)Cc1ccc(O)cc1)NC(=O)[C@H]1CCC[C@@H]1NC(=O)[C@H]1CCC[C@@H]1N [H12 AY] | 422 | 318 | – |
| NCCCC[C@@H](CC(=O)N[C@H]1CCC[C@@H]1C(=O)N[C@H]1CCC[C@@H]1C(=O)N[C@@H](CCC(N)=O)CC(=O)N[C@H]1CCC[C@@H]1C(=O)N[C@H]1CCC[C@@H]1C(N)=O)NC(=O)[C@H]1CCC[C@@H]1NC(=O)[C@H]1CCC[C@@H]1N [H12 KQ] | 293 | 300 | – |
| CC(C)C[C@@H](CC(=O)N[C@H]1CCC[C@@H]1C(=O)N[C@H]1CCC[C@@H]1C(N)=O)NC(=O)[C@H]1CCC[C@@H]1NC(=O)[C@H]1CCC[C@@H]1NC(=O)C[C@H](C)NC(=O)[C@H]1CCC[C@@H]1NC(=O)[C@H]1CCC[C@@H]1N [H12 AL] | 436 | 348 | – |
| CC(C)[C@@H](CC(=O)N[C@H]1CCC[C@@H]1C(=O)N[C@H]1CCC[C@@H]1C(=O)N[C@@H](CCCCN)CC(=O)N[C@H]1CCC[C@@H]1C(=O)N[C@H]1CCC[C@@H]1C(N)=O)NC(=O)[C@H]1CCC[C@@H]1NC(=O)[C@H]1CCC[C@@H]1N [H12 VK] | 430 | 185 | – |
| CSCC[C@@H](CC(=O)N[C@H]1CCC[C@@H]1C(=O)N[C@H]1CCC[C@@H]1C(=O)N[C@@H](CC(N)=O)CC(=O)N[C@H]1CCC[C@@H]1C(=O)N[C@H]1CCC[C@@H]1C(N)=O)NC(=O)[C@H]1CCC[C@@H]1NC(=O)[C@H]1CCC[C@@H]1N [H12 MN] | 195 | 177 | – |
| CSCC[C@@H](CC(=O)N[C@H]1CCC[C@@H]1C(=O)N[C@H]1CCC[C@@H]1C(N)=O)NC(=O)[C@H]1CCC[C@@H]1NC(=O)[C@H]1CCC[C@@H]1NC(=O)C[C@H](CCSC)NC(=O)[C@H]1CCC[C@@H]1NC(=O)[C@H]1CCC[C@@H]1N [H12 MM] | 364 | 166 | – |
| NCCCC[C@@H](CC(=O)N[C@H]1CCC[C@@H]1C(=O)N[C@H]1CCC[C@@H]1C(=O)N[C@H](CC(=O)N[C@H]1CCC[C@@H]1C(=O)N[C@H]1CCC[C@@H]1C(N)=O)Cc1ccc(O)cc1)NC(=O)[C@H]1CCC[C@@H]1NC(=O)[C@H]1CCC[C@@H]1N [H12 KY] | 227 | 138 | – |
| CSCC[C@@H](CC(=O)N[C@H]1CCC[C@@H]1C(=O)N[C@H]1CCC[C@@H]1C(N)=O)NC(=O)[C@H]1CCC[C@@H]1NC(=O)[C@H]1CCC[C@@H]1NC(=O)C[C@H](CCCCN)NC(=O)[C@H]1CCC[C@@H]1NC(=O)[C@H]1CCC[C@@H]1N [H12 KM] | 282 | 153 | – |
| CC[C@H](C)[C@@H](CC(=O)N[C@H]1CCC[C@@H]1C(=O)N[C@H]1CCC[C@@H]1C(N)=O)NC(=O)[C@H]1CCC[C@@H]1NC(=O)[C@H]1CCC[C@@H]1NC(=O)C[C@H](C)NC(=O)[C@H]1CCC[C@@H]1NC(=O)[C@H]1CCC[C@@H]1N [H12 AI] | 436 | 348 | – |
| NCCCC[C@@H](CC(=O)N[C@H]1CCC[C@@H]1C(=O)N[C@H]1CCC[C@@H]1C(=O)N[C@@H](CC(N)=O)CC(=O)N[C@H]1CCC[C@@H]1C(=O)N[C@H]1CCC[C@@H]1C(N)=O)NC(=O)[C@H]1CCC[C@@H]1NC(=O)[C@H]1CCC[C@@H]1N [H12 KN] | – | 274 | – |
| N=C(N)NCCC[C@@H](CC(=O)N[C@H]1CCC[C@@H]1C(=O)N[C@H]1CCC[C@@H]1C(=O)N[C@@H](CC(N)=O)CC(=O)N[C@H]1CCC[C@@H]1C(=O)N[C@H]1CCC[C@@H]1C(N)=O)NC(=O)[C@H]1CCC[C@@H]1NC(=O)[C@H]1CCC[C@@H]1N [H12 RN] | – | 217 | – |
